From the NIST ThermoML archive (doi:10.1021/je050389b)
± gives the expanded uncertainty stated by the source.

Experiment: xn = mol fraction of the nth substance listed
Details: Liquid; for viscosity: 100.5 kPa; for mass density: 101 kPa

CCCC(=O)OCCC(C)C [3-methylbutyl butanoate] + CCO
Details	mass density, 288.15 K [kg/m3]	mass density, 298.15 K [kg/m3]	mass density, 308.15 K [kg/m3]	mass density, 318.15 K [kg/m3]	viscosity, 288.15 K [mPa·s]	viscosity, 298.15 K [mPa·s]	viscosity, 308.15 K [mPa·s]	viscosity, 318.15 K [mPa·s]
x1 = 0.05	804.06 ± 0.23	795.35 ± 0.23	786.52 ± 0.24	777.54 ± 0.24	1.27 ± 0.018	1.057 ± 0.017	0.887 ± 0.016	0.744 ± 0.015
x1 = 0.1	812.38 ± 0.22	803.57 ± 0.23	794.63 ± 0.24	785.54 ± 0.24	1.231 ± 0.018	1.025 ± 0.017	0.858 ± 0.016	0.723 ± 0.015
x1 = 0.15	819.51 ± 0.22	810.61 ± 0.23	801.58 ± 0.23	792.4 ± 0.24	1.201 ± 0.018	1.004 ± 0.017	0.844 ± 0.015	0.715 ± 0.015
x1 = 0.2	825.58 ± 0.22	816.61 ± 0.23	807.52 ± 0.23	798.28 ± 0.24	1.181 ± 0.018	0.993 ± 0.016	0.838 ± 0.015	0.711 ± 0.015
x1 = 0.25	830.83 ± 0.23	821.8 ± 0.23	812.66 ± 0.24	803.38 ± 0.24	1.171 ± 0.018	0.985 ± 0.016	0.834 ± 0.015	0.71 ± 0.015
x1 = 0.3	835.41 ± 0.23	826.34 ± 0.23	817.17 ± 0.24	807.86 ± 0.24	1.167 ± 0.018	0.98 ± 0.016	0.832 ± 0.015	0.71 ± 0.015
x1 = 0.35	839.37 ± 0.23	830.31 ± 0.24	821.11 ± 0.24	811.78 ± 0.25	1.168 ± 0.018	0.98 ± 0.016	0.833 ± 0.015	0.714 ± 0.015
x1 = 0.4	842.96 ± 0.24	833.85 ± 0.24	824.64 ± 0.24	815.3 ± 0.25	1.17 ± 0.018	0.984 ± 0.016	0.835 ± 0.015	0.717 ± 0.015
x1 = 0.45	846.14 ± 0.24	837.02 ± 0.24	827.79 ± 0.25	818.44 ± 0.25	1.176 ± 0.018	0.989 ± 0.016	0.84 ± 0.015	0.723 ± 0.015
x1 = 0.5	849.03 ± 0.25	839.9 ± 0.25	830.66 ± 0.25	821.32 ± 0.26	1.183 ± 0.018	0.994 ± 0.017	0.846 ± 0.016	0.729 ± 0.015
x1 = 0.55	851.61 ± 0.25	842.46 ± 0.25	833.24 ± 0.26	823.9 ± 0.26	1.191 ± 0.018	1.001 ± 0.017	0.853 ± 0.016	0.735 ± 0.015
x1 = 0.6	854.01 ± 0.26	844.86 ± 0.26	835.64 ± 0.26	826.33 ± 0.27	1.202 ± 0.018	1.01 ± 0.017	0.862 ± 0.016	0.743 ± 0.015
x1 = 0.65	856.19 ± 0.26	847.05 ± 0.27	837.84 ± 0.27	828.54 ± 0.27	1.213 ± 0.018	1.021 ± 0.017	0.872 ± 0.016	0.751 ± 0.015
x1 = 0.7	858.18 ± 0.27	849.04 ± 0.27	839.85 ± 0.28	830.57 ± 0.28	1.224 ± 0.018	1.031 ± 0.017	0.882 ± 0.016	0.76 ± 0.015
x1 = 0.75	860.04 ± 0.28	850.92 ± 0.28	841.74 ± 0.28	832.49 ± 0.28	1.237 ± 0.018	1.043 ± 0.017	0.891 ± 0.016	0.77 ± 0.015
x1 = 0.8	861.76 ± 0.29	852.65 ± 0.29	843.5 ± 0.29	834.28 ± 0.29	1.253 ± 0.019	1.056 ± 0.017	0.903 ± 0.016	0.781 ± 0.015
x1 = 0.85	863.35 ± 0.29	854.28 ± 0.29	845.15 ± 0.3	835.96 ± 0.3	1.268 ± 0.019	1.071 ± 0.017	0.915 ± 0.016	0.792 ± 0.015
x1 = 0.9	864.86 ± 0.3	855.81 ± 0.3	846.71 ± 0.3	837.56 ± 0.31	1.284 ± 0.019	1.086 ± 0.017	0.929 ± 0.016	0.806 ± 0.015
x1 = 0.95	866.3 ± 0.31	857.28 ± 0.31	848.22 ± 0.31	839.12 ± 0.31	1.302 ± 0.019	1.099 ± 0.017	0.941 ± 0.016	0.817 ± 0.015
x1 = 1	867.72 ± 0.32	858.69 ± 0.32	849.62 ± 0.32	840.55 ± 0.32	1.317 ± 0.019	1.111 ± 0.018	0.952 ± 0.016	0.827 ± 0.016

CCCCCCCC(=O)OCC [ethyl octanoate] + CCO
Details	mass density, 288.15 K [kg/m3]	mass density, 298.15 K [kg/m3]	mass density, 308.15 K [kg/m3]	mass density, 318.15 K [kg/m3]	viscosity, 288.15 K [mPa·s]	viscosity, 298.15 K [mPa·s]	viscosity, 308.15 K [mPa·s]	viscosity, 318.15 K [mPa·s]
x1 = 0.05	805.14 ± 0.23	796.5 ± 0.23	787.73 ± 0.24	778.81 ± 0.24	1.322 ± 0.019	1.094 ± 0.017	0.915 ± 0.016	0.772 ± 0.015
x1 = 0.1	814.37 ± 0.22	805.66 ± 0.23	796.82 ± 0.23	787.83 ± 0.24	1.299 ± 0.019	1.081 ± 0.017	0.907 ± 0.016	0.773 ± 0.015
x1 = 0.15	822.04 ± 0.22	813.27 ± 0.23	804.39 ± 0.23	795.36 ± 0.24	1.306 ± 0.019	1.087 ± 0.017	0.915 ± 0.016	0.78 ± 0.015
x1 = 0.2	828.52 ± 0.22	819.74 ± 0.23	810.84 ± 0.23	801.79 ± 0.24	1.32 ± 0.019	1.098 ± 0.017	0.926 ± 0.016	0.791 ± 0.015
x1 = 0.25	833.98 ± 0.22	825.17 ± 0.23	816.25 ± 0.23	807.19 ± 0.24	1.337 ± 0.019	1.112 ± 0.017	0.94 ± 0.016	0.804 ± 0.015
x1 = 0.3	838.69 ± 0.22	829.87 ± 0.23	820.94 ± 0.23	811.88 ± 0.24	1.356 ± 0.019	1.129 ± 0.017	0.953 ± 0.016	0.817 ± 0.015
x1 = 0.35	842.77 ± 0.22	833.94 ± 0.23	825.02 ± 0.23	815.96 ± 0.24	1.375 ± 0.019	1.145 ± 0.018	0.969 ± 0.016	0.831 ± 0.015
x1 = 0.4	846.39 ± 0.23	837.55 ± 0.23	828.63 ± 0.23	819.58 ± 0.24	1.398 ± 0.019	1.164 ± 0.018	0.984 ± 0.016	0.844 ± 0.016
x1 = 0.45	849.59 ± 0.23	840.77 ± 0.23	831.86 ± 0.24	822.83 ± 0.24	1.42 ± 0.02	1.183 ± 0.018	1 ± 0.017	0.859 ± 0.016
x1 = 0.5	852.45 ± 0.23	843.63 ± 0.24	834.72 ± 0.24	825.71 ± 0.24	1.443 ± 0.02	1.202 ± 0.018	1.016 ± 0.017	0.873 ± 0.016
x1 = 0.55	855.04 ± 0.24	846.23 ± 0.24	837.34 ± 0.24	828.36 ± 0.25	1.468 ± 0.02	1.222 ± 0.018	1.033 ± 0.017	0.888 ± 0.016
x1 = 0.6	857.4 ± 0.24	848.6 ± 0.24	839.72 ± 0.25	830.77 ± 0.25	1.492 ± 0.02	1.242 ± 0.018	1.05 ± 0.017	0.903 ± 0.016
x1 = 0.65	859.54 ± 0.24	850.77 ± 0.25	841.92 ± 0.25	832.99 ± 0.25	1.517 ± 0.02	1.262 ± 0.018	1.068 ± 0.017	0.917 ± 0.016
x1 = 0.7	861.52 ± 0.25	852.76 ± 0.25	843.94 ± 0.25	835.05 ± 0.26	1.542 ± 0.021	1.284 ± 0.019	1.085 ± 0.017	0.933 ± 0.016
x1 = 0.75	863.4 ± 0.25	854.68 ± 0.26	845.88 ± 0.26	837.01 ± 0.26	1.568 ± 0.021	1.306 ± 0.019	1.103 ± 0.017	0.948 ± 0.016
x1 = 0.8	865.13 ± 0.26	856.41 ± 0.26	847.64 ± 0.26	838.81 ± 0.27	1.595 ± 0.021	1.327 ± 0.019	1.121 ± 0.017	0.964 ± 0.016
x1 = 0.85	866.72 ± 0.26	858 ± 0.27	849.25 ± 0.27	840.47 ± 0.27	1.623 ± 0.021	1.35 ± 0.019	1.14 ± 0.018	0.979 ± 0.016
x1 = 0.9	868.19 ± 0.27	859.5 ± 0.27	850.78 ± 0.27	842.05 ± 0.28	1.649 ± 0.022	1.371 ± 0.019	1.159 ± 0.018	0.996 ± 0.017
x1 = 0.95	869.6 ± 0.28	860.93 ± 0.28	852.26 ± 0.28	843.57 ± 0.28	1.673 ± 0.022	1.391 ± 0.02	1.177 ± 0.018	1.013 ± 0.017
x1 = 1	870.79 ± 0.28	862.15 ± 0.29	853.52 ± 0.29	844.87 ± 0.29	1.697 ± 0.022	1.411 ± 0.02	1.193 ± 0.018	1.027 ± 0.017
